Here are results for one compound from patent US12276654B2, “Chemical probe-dependent evaluation of protein activity and uses thereof” (The University of Chicago, priority 2017, dated 2025).

Where two headings read alike, the source gives them in different places.

One assay deals with T1, MGLL (Mus musculus, UniProt O35678).
T1 construct: Then the mPBMCs were acquired from the mouse blood and subjected to family wide probe treatment; from tissue; host or cells: mouse blood PBMCs (mPBMCs)
T1 sequence (O35678 1-303): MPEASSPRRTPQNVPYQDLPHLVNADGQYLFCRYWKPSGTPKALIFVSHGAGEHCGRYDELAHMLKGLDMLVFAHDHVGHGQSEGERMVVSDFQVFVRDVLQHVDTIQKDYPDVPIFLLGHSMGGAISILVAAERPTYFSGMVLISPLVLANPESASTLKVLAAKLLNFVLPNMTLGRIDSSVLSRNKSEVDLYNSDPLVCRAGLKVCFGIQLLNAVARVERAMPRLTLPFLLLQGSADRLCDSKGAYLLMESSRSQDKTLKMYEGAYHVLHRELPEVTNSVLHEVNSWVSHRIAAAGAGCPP
The assay is described as follows: sADPL in vivo target engagement in mPBMCs after oral gavage, off-target MGLL. The settings on record: mice, 3 and 80 mg/kg. The text has this: FIG. 25. In vivo Target Engagement. The mice were administrated with vehicle (PEG300) or NCEH1 inhibitor JW480 by oral gavage. Then the mPBMCs were acquired from the mouse blood and subjected to family wide probe treatment to profile the in vivo target engagement.
Following the in vitro study, in vivo target engagement was planned. In this experiment, the inventors orally gavaged the mice with vehicle or inhibitors, then collected the mPBMCs for probe treatment and sADPL measurement. Again, first the activity of NCEH1 was tested in mice PBMCs, and good activity was found. The delta Ct is over 7 cycles, which is over 100 fold change.

In a further assay the target is T2, NCEH1 (Homo sapiens, UniProt Q6PIU2).
T2 sequence (Q6PIU2 1-408): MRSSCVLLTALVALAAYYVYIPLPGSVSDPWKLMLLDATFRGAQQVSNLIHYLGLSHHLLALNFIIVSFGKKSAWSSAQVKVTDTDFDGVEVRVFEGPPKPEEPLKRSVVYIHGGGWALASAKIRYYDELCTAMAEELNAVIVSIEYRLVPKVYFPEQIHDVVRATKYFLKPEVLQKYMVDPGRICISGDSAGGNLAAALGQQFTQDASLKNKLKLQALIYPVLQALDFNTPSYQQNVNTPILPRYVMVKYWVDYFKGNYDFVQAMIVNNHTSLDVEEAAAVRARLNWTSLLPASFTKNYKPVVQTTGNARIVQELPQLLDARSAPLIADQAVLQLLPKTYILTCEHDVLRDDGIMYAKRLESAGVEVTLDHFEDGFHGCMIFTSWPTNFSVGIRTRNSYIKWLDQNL
The assay is described as follows: ADPL imaging and quantification of endogenous NCEH1 activity in live cells (inhibitor profiling by ADPL). It counts as cell-based. Details: endogenous NCEH1 activity in SKOV3 cells; endogenous in cells; host or cells: SKOV3; wild-type PC3; PAFAH2-expressing PC3. The settings on record: for IC50: inhibitor 4 hr before FP-Bio (2 μM, 40 min), read-out: apparent IC50, inhibition of NCEH1 by ADPL. On the procedure:
Cells were seeded in the 12-well chamber slide, typically at 10,000-30,000 cells per well (Ibidi, #81201). To get an even distribution of the cells, the chamber slide was pre-wetted with cell culture medium, drained off, and the chamber was left at room temperature for 5-10 min after seeding. Cells at 80-90% confluency were pulse treated with either FP-Bio (2 μM) in DMEM and incubated at 37° C. for 40 min or Capthepsin probe (5 μM) in complete medium and incubated at 37° C. for 3 hr. Cells were washed with PBS, fixed with 4% paraformaldehyde in PBS at room temperature for 15 minutes, washed twice with PBS for 5 minutes each at room temperature with orbital shaking and then permeabilized in 0.5% Triton X-100 in PBS at room temperature for 15 minutes. Finally, cells were washed twice with 0.05% Tween-20 in PBS for 5 minutes each at room temperature with orbital shaking.
Prior to antibody incubation, the chamber was removed and the well boundaries delineated with the hydrophobic barrier pen (Vector laboratories, #H-4000). One-drop Duolink blocking buffer (Sigma, #DUO92004) was added and the slide was incubated at 37° C. for 30 minutes in a humidified chamber. The blocking solution was removed by tapping, followed by addition of 10 μg/ml of the anti-biotin (rabbit, Abcam, #G196266) and primary antibody for the protein of interest: anti-FLAG (mouse, 4 μg/ml of Sigma, #F1804-5 mg); anti-NCEH1 (mouse, 4 μg/ml of in-house polyclonal), anti-FAAH (mouse, 4 μg/ml of Abcam, #ab54615) for serine hydrolase members. […]
For quantitative analysis single cell boundaries were identified manually using the DIC image. Then the “ROI Manager” tool in Image) was utilized to add all the cell outlines as a collection and overlay with the ADPL channel to measure per-cell fluorescence intensity. Typical quantitative comparisons were made using data from three or more independent fields of view per independent biological replicate condition. […]

Broadly, the IC50 is the concentration that gives 50% inhibition. As to `CC(C)c1ccccc1OC(=O)NCCc1ccc2ccccc2c1` [JW480], the “in vivo target engagement of off-target MGLL in mPBMCs” value on MGLL is “no target engagements were observed”. The IC50 at NCEH1 (PAFAH2 expressing PC3 cells) is 8 nM; at NCEH1 (wild-type PC3 cells), 6 nM. For the same compound, on NCEH1 (SKOV3 cells, 1 μM, 4 hr pre-treatment before FP-Bio), the “NCEH1 activity by ADPL imaging and quantification relative to vehicle” value is on record as “significantly reduced”.
